# In US20150126507A1, “COMPOUNDS TO TREAT HEARING LOSS” (Fate Therapeutics, Inc., priority 2013, published 2015):
# T1: AHR (Homo sapiens, UniProt P35869)
# T1 construct: HEK293 cells were transduced with a lentiviral vector containing a concatamer of Atoh1 enhancer A and B elements; endogenous in cells; host or cells: HEK293-derived Atoh1 reporter cell line
# T1 sequence (P35869 11-848): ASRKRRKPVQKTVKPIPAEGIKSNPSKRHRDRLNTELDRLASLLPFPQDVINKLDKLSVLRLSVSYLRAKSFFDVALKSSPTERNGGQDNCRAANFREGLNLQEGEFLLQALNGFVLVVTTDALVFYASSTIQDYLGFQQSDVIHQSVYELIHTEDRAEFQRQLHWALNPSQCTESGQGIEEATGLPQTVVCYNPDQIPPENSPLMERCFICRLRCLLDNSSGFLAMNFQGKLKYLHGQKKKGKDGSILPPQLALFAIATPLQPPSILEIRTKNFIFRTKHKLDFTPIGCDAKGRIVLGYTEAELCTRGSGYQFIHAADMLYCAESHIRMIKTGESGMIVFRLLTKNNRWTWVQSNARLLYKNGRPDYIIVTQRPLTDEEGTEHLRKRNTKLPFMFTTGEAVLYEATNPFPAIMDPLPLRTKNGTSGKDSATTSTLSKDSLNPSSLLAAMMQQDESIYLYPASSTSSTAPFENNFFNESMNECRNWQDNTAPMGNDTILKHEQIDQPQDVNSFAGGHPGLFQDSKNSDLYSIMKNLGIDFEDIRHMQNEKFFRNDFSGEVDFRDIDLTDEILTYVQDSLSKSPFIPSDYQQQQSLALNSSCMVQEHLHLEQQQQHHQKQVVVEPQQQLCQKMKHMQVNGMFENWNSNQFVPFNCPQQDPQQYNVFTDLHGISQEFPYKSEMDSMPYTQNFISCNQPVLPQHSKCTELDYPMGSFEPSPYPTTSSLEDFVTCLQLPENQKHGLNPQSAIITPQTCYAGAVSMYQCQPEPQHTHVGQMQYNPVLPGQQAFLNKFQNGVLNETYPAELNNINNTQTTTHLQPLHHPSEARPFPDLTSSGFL
# B1: AHR siRNA: pool of four siRNA sequences against human AHR (Thermo Scientific) (nucleic acid)
# guide 1: GCAAGUUAAUGGCAUGUUU
# guide 2: GAACUCAAGCUGUAUGGUA
# guide 3: GCACGAGAGGCUCAGGUUA
# guide 4: GCAACAAGAUGAGUCUAUU
# modifications: pool of four siRNAs, further chemistry not given here
# System: P5 rat cochlear explants
# Assay: Tobramycin treatment of cochlear explants, hair cell and supporting cell marker mRNA
# Assay type: cell-based
# Conditions: tobramycin 1 mM, 3 days
# Procedure: The ten selected hits of Example 43 were assayed for the ability to induce Atoh1 expression in primary cultured cochlear explants from the neonatal rat. Postnatal day 5 (P5) rat cochlear explants were cultured with the ototoxic aminoglycoside antibiotic, tobramycin (1 mM), for 3 days prior to drug testing, as an in vitro model of drug-induced hearing loss. […] See, e.g., Ruedi, et al., Larynoscope 62:333-357 (1952). After the 3 day tobramycin pretreatment, the cochlear explants were cultured with the compounds of Example 43 or DMSO vehicle for an additional 2 days. Atoh1 expression levels, measured by qRT-PCR and normalized to ribosomal 18S expression, after hit compound treatments are shown in FIG. 3.
Molecule,Sox2 mRNA (supporting cell marker),reduction of Atoh1 mRNA level,reduction of MYO7A mRNA level
NC[C@H]1O[C@H](O[C@H]2[C@H](O)[C@@H](O[C@H]3O[C@H](CO)[C@@H](O)[C@H](N)[C@H]3O)[C@H](N)C[C@@H]2N)[C@H](N)C[C@@H]1O [tobramycin],without reducing,more than 80%,more than 80%

# Biological target: T1, AHR
# Assay: AHR siRNA analysis in Atoh1 reporter cell line, luciferase assay and qRT-PCR
# Assay type: cell-based
# Conditions: 75 nM siRNA, 5 μM Compound 4 for 48 hours, luciferase assay
# Procedure: An siRNA analysis was used to determine if AHR is required for the Atoh1-inducing activity of Compound 4. One day before transfection, the Atoh1 reporter cell line was plated at 1.5×10^5 cells/well in a 24-well plate. The cells were transfected with 75 nM on-target plus human AHR siRNA SMART pool or Non-target pool using DharmaFECT1 (Thermo Scientific). AHR siRNA sequences in the SMART pool were GCAAGUUAAUGGCAUGUUU, GAACUCAAGCUGUAUGGUA, GCACGAGAGGCUCAGGUUA, and GCAACAAGAUGAGUCUAUU. Mock-transfected cells served as an additional negative control. 16 hours after transfection, media were replaced with fresh complete medium containing 5 μM Compound 4 or DMSO. After 48 hours of treatment, cells were analyzed by luciferase assay and qRT-PCR.
# AHR siRNA reduced AHR expression by 69%, while the control siRNA was without effect. […] Results are expressed in FIGS. 6A and 6B as the average±S.D. for triplicate wells. […] See, e.g., Ben-Arie, et al., Human Mol. Genetics 5(9):1207-1216 (1996).
row,Molecule,reduction of Compound 4-mediated Atoh1 reporter activity
1,B1,54%

# Same assay, conditions: 75 nM siRNA, qRT-PCR
row,Molecule,reduction of AHR expression
1,B1,69%

# System: Atoh1 enhancer reporter in HEK293 cells
# Assay: Atoh1 reporter cell line, firefly luciferase normalized to renilla luciferase
# Assay type: cell-based
# Conditions: Atoh1 reporter cell line treated with AHR agonists for 2 days
# Procedure: FIG. 2. Dose response data for selected hits. Atoh1 reporter cells plated in 384 well plates were treated with test compounds or vehicle controls for 2 days. Firefly luciferase signal was measured and normalized to the renilla luciferase signal. Results from duplicate wells (circles and triangles) are expressed relative to normalized controls treated with DMSO.
# A reporter cell line expressed in HEK293 cells in which Atoh1 enhancer elements flanked a minimal promoter driving firefly luciferase expression was created. Dose response data was generated in the reporter cell line. Atoh1 reporter cells plated in […] plates were treated with test compounds or vehicle controls for 2 days. Firefly luciferase signal was measured and normalized to the renilla luciferase signal.
# For high-throughput screening, HEK293 cells were transduced with a lentiviral vector containing a concatamer of Atoh1 enhancer A and B elements, the Promega minP minimal promoter, firefly luciferase coding sequence and hygromycin selectable marker. After selection, the cells were transduced with a second lentiviral vector containing the EF1α constitutive promoter, Renilla luciferase and puromycin selectable marker. A clonal derivative expressing both transgenes was expanded and banked for screening.
# A screening assay was done by plating 8000 cells/well in 384 well plates, and treating for 48 hours with 1 and 10 μM test compound in DMSO, vehicle control, or the GSK-3B inhibitor, BIO, as a positive control. Firefly and Renilla luciferase were measured sequentially using Dual-Glo (Promega) with an Envision multi-label plate reader (Perkin Elmer). Data were analyzed after normalizing firefly luciferase signals to Renilla luciferase signals. A primary screen of 50,000 diverse compounds identified 140 hits. […] 10 of these 41 hits were selected for further analysis
# To confirm activity in the 10 selected hits, the test compounds were reassayed at 3.3×10^−9, 1×10^−8, 3.3×10^−8, 1×10^−7, 3.3×10^−7, 1×10^−6, 3.3×10^−6 and 1×10^−5 molar concentrations. […] Results from duplicate wells (circles and triangles) are expressed relative to normalized controls treated with DMSO.
row,Molecule,Atoh1 reporter activity
1,"COC(=O)c1csc(C(=O)c2c[nH]c3ccccc23)n1 [ITE, reference compound]",stimulated Atoh1 reporter activity
2,"CN1C(=O)/C(=C2\Nc3ccccc3\C2=N/O)c2ccc(Br)cc21 [MeBIO, reference compound]",stimulated Atoh1 reporter activity
3,"Br.Cc1ccc(C(=O)Cn2c3c(sc2=N)CCCC3)cc1 [Pfithrin-α-hydrobromide, reference compound]",stimulated Atoh1 reporter activity

# Same assay, conditions: Homo sapiens, HEK293, 48 h, Atoh1 reporter HEK293 cells, treated 2 days, dose response; read-out: ED50 (the source's name)
row,Molecule,EC50
1,"Cc1c(C(=O)N(C)c2nccs2)oc2ccccc12 [Compound 1, N,3-dimethyl-N-(thiazol-2-yl)benzofuran-2-carboxamide]",1600 nM
2,"CN(C(=O)c1cc2ccccc2o1)c1nccs1 [Compound 2, N-methyl-N-(thiazol-2-yl)benzofuran-2-carboxamide]",700 nM
3,Cc1nc(NC(=O)c2oc3ccccc3c2C)sc1C [Compound 3],2700 nM
4,CCOC(=O)c1sc(NC(=O)c2oc3ccccc3c2C)nc1C [Compound 5],700 nM
5,Cc1c(C(=O)Nc2nc(-c3ccccc3)cs2)oc2ccccc12 [Compound 6],1300 nM
6,Cc1c(C(=O)Nc2nc(C(C)(C)C)cs2)oc2ccccc12 [Compound 7],1300 nM
7,Cc1c(C(=O)Nc2nc(S(C)(=O)=O)cs2)oc2ccccc12 [Compound 8],1100 nM
8,Cc1nc(NC(=O)c2oc3ccccc3c2C)sc1C(=O)N(C)C [Compound 9],1700 nM
9,COc1ccc2nc(NC(=O)c3oc4ccccc4c3C)sc2c1 [Compound 11],700 nM
10,Cc1c(C(=O)Nc2nc3ccc(Cl)cc3s2)oc2ccccc12 [Compound 12],600 nM
11,O=C(Nc1nccs1)c1cc2ccccc2o1 [Compound 13],400 nM
12,COc1cccc2cc(C(=O)Nc3ncc(C)s3)oc12 [Compound 15],1000 nM
13,COc1cccc2cc(C(=O)Nc3nccs3)oc12 [Compound 16],2700 nM
14,O=C(Nc1nc2c(s1)CCCC2)c1cc2ccccc2o1 [Compound 17],400 nM
15,Cc1c(C(=O)Nc2nccs2)oc2c1ccc1ccccc12 [Compound 18],> 3000 nM
16,Cc1c(C(=O)Nc2nccs2)oc2c(Cl)cccc12 [Compound 19],700 nM
17,COc1ccc2oc(C(=O)Nc3nc(CN4CCOCC4)cs3)c(C)c2c1 [Compound 21],900 nM
18,CSCc1c(C(=O)Nc2nccs2)oc2ccccc12 [Compound 22],500 nM

row,Molecule,EC50
1,CCOc1ccc2oc(C(=O)Nc3nccs3)c(C)c2c1 [Compound 23],500 nM
2,O=C(Nc1nccs1)c1oc2ccccc2c1COc1ccccc1 [Compound 24],700 nM
3,COCc1c(C(=O)Nc2nccs2)oc2ccccc12 [Compound 25],1700 nM
4,Cc1csc(N(C(=O)c2cc3ccccc3o2)c2ccccc2)n1 [Compound 26],> 3000 nM
5,Cc1cnc(NC(=O)c2cc3ccccc3o2)s1 [Compound 27],200 nM
6,CSCc1c(C(=O)Nc2nc(C)cs2)oc2ccccc12 [Compound 28],1300 nM
7,CN(C(=O)c1cc2cccc(Br)c2o1)c1nccs1 [Compound 29],1400 nM
8,O=C(Nc1nccs1)c1cc2cc(Br)ccc2o1 [Compound 30],> 3000 nM
9,Cc1c(C(=O)Nc2nccs2)oc2ccc(F)cc12 [Compound 31],600 nM
10,CCc1nc(NC(=O)c2oc3c(F)cccc3c2C)sc1C [Compound 32],1000 nM
11,Cc1cnc(NC(=O)c2oc3ccc(Br)cc3c2C)s1 [Compound 33],400 nM
12,Cc1csc(NC(=O)c2oc3ccc(Br)cc3c2C)n1 [Compound 34],1600 nM
13,COc1ccc2oc(C(=O)Nc3nc(C)cs3)c(C)c2c1 [Compound 35],500 nM
14,Cc1c(C(=O)Nc2nccs2)oc2ccc(Br)cc12 [Compound 36],800 nM
15,Cc1csc(NC(=O)c2oc3ccc(F)cc3c2C)n1 [Compound 37],2300 nM
16,Cc1csc(NC(=O)c2oc3c(Cl)cccc3c2C)n1 [Compound 38],> 3000 nM
17,CC(=O)c1sc(NC(=O)c2cc3ccccc3o2)nc1C [Compound 39],500 nM
18,Cc1c(C(=O)Nc2nccs2)oc2ccc(Cl)cc12 [Compound 41],400 nM
